# Tests used:
# [1] = target: T1, 5-HT1A receptor (Homo sapiens, UniProt P08908); assay: cAMP-Glo assay of 5-HT1A receptor modulation, CHO-K1/5-HT1A/Ga15 (+5-HT1A) vs CHO-K1/Ga15 (−5-HT1A) cells; type: cell-based; conditions: +5-HT1A vs −5-HT1A CHO-K1 cells; 4 μM forskolin; increasing ligand concentration
# T1 construct: host or cells: CHO-K1 (co-expressing Ga15)
# T1 sequence (P08908 1-422): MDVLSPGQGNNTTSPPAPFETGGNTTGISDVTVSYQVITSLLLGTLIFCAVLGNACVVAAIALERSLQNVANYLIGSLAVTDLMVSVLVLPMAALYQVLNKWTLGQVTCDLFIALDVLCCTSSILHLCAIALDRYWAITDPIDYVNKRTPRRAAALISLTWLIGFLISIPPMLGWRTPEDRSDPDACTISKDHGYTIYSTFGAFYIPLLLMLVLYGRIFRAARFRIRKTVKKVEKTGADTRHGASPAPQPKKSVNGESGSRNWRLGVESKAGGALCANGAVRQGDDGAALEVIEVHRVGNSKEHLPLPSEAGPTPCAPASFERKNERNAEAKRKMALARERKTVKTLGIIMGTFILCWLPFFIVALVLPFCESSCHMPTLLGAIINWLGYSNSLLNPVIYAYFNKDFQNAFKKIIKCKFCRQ
# [2] = target: T2, 5-HT2A receptor (5-HT2AR) (Mus musculus, UniProt P35363); assay: Drug-induced Head Twitch Response (HTR); type: in vivo; conditions: 1 mg/kg i.p., 15-to-30-minute window post-drug, relative to vehicle
# T2 construct: host or cells: C57BL/6 mice, in vivo (neuronal receptor)
# T2 sequence (P35363 whole entry): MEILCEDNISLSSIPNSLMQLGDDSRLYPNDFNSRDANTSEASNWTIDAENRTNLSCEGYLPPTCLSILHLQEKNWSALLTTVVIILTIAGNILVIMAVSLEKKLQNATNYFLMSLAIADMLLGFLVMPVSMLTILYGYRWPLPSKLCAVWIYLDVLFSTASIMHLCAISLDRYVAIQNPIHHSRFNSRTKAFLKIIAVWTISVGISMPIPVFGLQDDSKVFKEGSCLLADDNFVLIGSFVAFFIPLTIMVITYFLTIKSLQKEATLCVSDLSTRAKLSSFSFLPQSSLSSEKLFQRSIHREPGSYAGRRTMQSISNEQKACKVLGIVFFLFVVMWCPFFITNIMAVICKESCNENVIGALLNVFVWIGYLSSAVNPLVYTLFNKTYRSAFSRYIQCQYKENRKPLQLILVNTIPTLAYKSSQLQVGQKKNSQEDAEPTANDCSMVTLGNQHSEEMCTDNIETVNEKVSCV
smiles,measurement,setting,value
COCCOCCOCC(=O)Oc1cccc2[nH]cc(CCN(C)C)c12 [C(III)],5-HT1A receptor modulation (reduction of forskolin-induced cAMP),[1],significant receptor modulation
same,Head Twitch Response (HTR) incidence,[2],Elevated incidences of HTR
CN(C)CCc1c[nH]c2cccc(OC(=O)c3cccc(C(=O)Oc4cccc5[nH]cc(CCN(C)C)c45)c3)c12 [C(VII)],5-HT1A receptor modulation (reduction of forskolin-induced cAMP),[1],no significant receptor modulation
same,Head Twitch Response (HTR) incidence,[2],Elevated incidences of HTR
COC(=O)c1cccc(C(=O)Oc2cccc3[nH]cc(CCN(C)C)c23)c1 [C(XLIII)],5-HT1A receptor modulation (reduction of forskolin-induced cAMP),[1],receptor modulation at higher ligand concentrations
"NCCc1c[nH]c2ccc(O)cc12 [serotonin, reference compound]",5-HT1A receptor modulation (reduction of forskolin-induced cAMP),[1],reduction in cAMP levels

# — US20250197351A1, “C4-CARBOXYLIC ACID-S[…] DERIVATIVES AND METHODS OF USING” (priority 2022, published 2025)
